Reference: patent US6495588B2, “Scytonemin and methods of using thereof” (The Regents of the University of California, priority 2000, dated 2002)

Assays:
[1] = tested on: PMA-induced cell proliferation in mouse ear epidermis; assay: Mouse ear cell proliferation assay (IUdR incorporation, PCNA histology); type: in vivo; details: +PMA 4 μg/ear; scytonemin 1 mg/ear, dexamethasone 0.15 mg/ear
Procedure: To determine the efficacy of scytonemin as an anti-proliferative agent in vivo, the following assay was conducted. On day one, test compounds were delivered in 10 μl 20% DMSO, 80% acetone and applied to both the inner and outer pinnae of left ears (20 μl total) of male, Swiss Webster mice (Taconic Farms, Germantown, N.Y.). The right ears received only vehicle. One hour post test compound application, 4 μg/ear PMA (Sigma, St. Louis, Mo.) in 10 μl acetone was applied to the inner pinnae of each left ear and 10 μl acetone was applied to each right ear. Four hours post test compound application, the each test compound was again applied in the same manner. On day two, the test compounds were applied twice with a four-hour interval between each application. On day three, the test compounds and PMA were applied as they had been on day one.
One hour after the final test compound applications, each mouse was injected with 0.6 ml of a solution containing the thymidine analogue, 5-iodo-I^125-2′-deoxyuridine (IUdR) (2 μCi-I^125/mouse) and, to inhibit the endogenous deoxythymidilic acid synthetase, fluorodeoxyuridine (FUdR) ([…]). This IUdR/FUdR solution was made up in RPMI 1640 media. Eighteen hours post injection, the mice were euthanized via CO2 inhalation, the ears were excised and soaked individually in a 70% EtOH solution overnight.
IUdR incorporation was then measured using a Beckman Gamma counter, Model 5500B. […] Therefore, scytoneman compounds may be used to reduce, prevent, inhibit, modulate, or attenuate cell proliferation.
Additionally, immunostaining with Proliferating Cell Nuclear Antigen (PCNA) was used as a proliferation marker to identify proliferating cells. PCNA is a cofactor for DNAt […]. Expression levels of PCNA fluctuate over the cell cycle. […] Low expression levels of PCNA indicate non-cycling cells.
Histological analysis was used to determine the effect of scytonemin on the thickness of the epidermal layer of skin, the mitotic index of cells in the epidermal layer, the number of cells in the epidermis, and the amount of immune cell infiltration. PCNA antibodies were used to detect the presence of PCNA in cells and a peroxidase-Ni/DAB development system was used to stain PCNA-positive cells black and hematoxlin was used as a nuclear blue counterstain using conventional methods.

Jurkat T cells = assay: Apoptosis assay (TUNEL, flow cytometry); type: cell-based; details: 3 μM, 24 hours
Procedure: To determine the mechanism behind the ability of SCY to inhibit cell proliferation, about 2×10^5 Jurkat T cells/ml were treated with vehicle (negative control), 3 μM SCY, or 3 μM camptothecin (positive control) a (0.1% DMSO[final]) and incubated at 37° C., 5% CO2 for 24 hours. As a positive control, camptothecin, a DNA topoisomerase inhibitor, was used because of its ability to arrest Jurkat cells at the G2/M phase of the cell cycle and induce the cells to undergo apoptosis. The cells were fixed in 1% paraformaldehyde, washed once with PBS, and stored in 70% EtOH at−20° C. Apoptosis was measured using the Promega Apoptosis Detection System (Promega, Madison, Wis.) an adapted TUNEL staining method.
The cells were washed two times with 5 ml PBS 2% FBS, then transferred to a microcentrifuge tube in 1 ml PBS, 0.2% Triton×100, 5 mg/ml BSA and incubated on ice for 5 minutes. Samples were spun, PBS solution removed, then resuspended in 80 μl equilibration buffer from Promega kit and incubated at room temperature for 10 minutes. Then the samples were spun and the equilibration buffer removed. A nucleotide mix comprising 45 μl equilibration buffer, 5 μl nucleotide mix, 1 μl Tdt enzyme per sample, was used to resuspend each sample in the dark. The cells were incubated in the dark at 37° C. for 1 hour. The reaction was terminated by the addition of 20 mM EDTA. The samples were washed twice with 1 ml RNAse A and a small aliquot, about 50 μl, was viewed under a microscope. Cells were stained with fluoroscein and then counterstained with propidium iodide and analyzed for DNA content and fragmentation using a Becton-Dickinson FacsSort (Becton-Dickinson, San Jose, Calif.).

SMILES: C[C@@H]1C[C@H]2[C@@H]3CCC4=CC(=O)C=C[C@]4(C)[C@@]3(F)[C@@H](O)C[C@]2(C)[C@@]1(O)C(=O)CO [dexamethasone, reference compound]
- cells actively proliferating (PCNA staining) [1]: about 60%

SMILES: CC[C@@]1(O)C(=O)OCc2c1cc1n(c2=O)Cc2cc3ccccc3nc2-1 [camptothecin, reference compound]
- cells induced to undergo apoptosis (Jurkat T cells): 71%
- effect on cell cycle progression (Jurkat T cells): arrested the cells at G2/M phase
